Measured values from patent US6358988B1, “Process and composition for the antiparasitic treatment of the surroundings of animals” (priority 1996, dated 2002).

Tests used:
adult Tenebrio molitor = assay: whole plant or invertebrate; conditions: in Solanum tuberosum, 24 h
Description: Ten (10) gram pieces of potato were placed into individual jars. […] The acetone-surfactant solution comprised acetone. Triton® 152, and Triton® 172 mixed in volumetric ratio of about 785:1:3. […] Adult Tenebrio molitor and a strip of paper towel 1 cm by 3 cm were added to each jar. Mortality was rated at 1 day after treatment.
If the actually observed value is greater than the expected value […] then there is synergism.

[1] = test system: darkling beetles (Alphitobius diaperinus); assay: Poultry house litter treatment, darkling beetle population monitored with 9 traps; format: in vivo; conditions: water-dispersible granules containing 80% of compound (A), 150 g/ha; during the 10th week (end of a rearing cycle)
Description: The treatment took place on the clean litter before the poultry was installed therein. The clean litter was essentially composed of straw.
On the day after the treatment, a group of chicks aged 1 to 2 days was installed in the rearing house at the rate of approximately 7 animals per m^2.
The change in the population of darkling beetles (Alphitobius diaperinus) in the litter was regularly monitored using 9 homogeneously distributed traps. Measurements were carried out each week from the second week after the treatment until rearing was halted.
The total population of darkling beetles in the 9 traps of the treated poultry house varied between 11 and 96 until the 9th week after treatment whereas, in a similar but untreated poultry house, the population of darkling beetles (larvae and adults) oscillated between 1000 and 3000 at each counting point.

fly larvae = conditions: 25 ppm of compound (A); surface of poultry dung and cow dung
Description: An application was carried out at the surface of poultry dung and of cow dung treated beforehand with fly larvae.

SMILES: CNC(=O)Oc1cccc2ccccc12 [Carbaryl, 1-naphthyl methylcarbamate, reference compound]
- mortality at 6.25 ppm (adult Tenebrio molitor): 0%
- mortality at 25 ppm (adult Tenebrio molitor): 27%
- mortality at 100 ppm (adult Tenebrio molitor): 80%
- mortality at 400 ppm (adult Tenebrio molitor): 93%

SMILES: N#Cc1nn(-c2c(Cl)cc(C(F)(F)F)cc2Cl)c(N)c1[S+]([O-])C(F)(F)F (stereo not drawn) [compound (A), 1-[2,6-Cl2-4-CF3phenyl]-3-CN-4-[SO—CF3]-5-NH2pyrazole]
- control of darkling beetles [1]: 86%
- inhibition of larval development of the flies (effectiveness with respect to untreated controls) (fly larvae): 100%
